Paper PMC10180137 (Molecules, 2023)
Where two headings read alike, the source gives them in different places.

Assays:
[1] = biological target: yeast α-glucosidase; assay: α-glucosidase inhibitory activity assay (p-NPG substrate, absorbance at 405 nm); format: biochemical, Saccharomyces cerevisiae
Method: This experiment was carried out in 96-well plates with reaction system of 230 μL. […] The 96-well plates were incubated in a constant-temperature incubator for 20 min at 37 °C, then 20 μL of 2.658 mmol/L p-PNG was added, and then incubation continued for another 28 min. The termination of the reaction was conducted by adding 80 μL of 0.2 mol/L Na2CO3 to each well. The absorbance was recorded for each well at 405 nm by a microplate reader, and the experiment was carried out three times in parallel. The measured absorbance values were processed by Graphpad Prism software 9.5 to calculate the IC50 values of the compounds.

[2] = tested on: α-glucosidase; assay: Inhibitory kinetics against α-glucosidase (Lineweaver–Burk plots); format: biochemical, Saccharomyces cerevisiae; details: Lineweaver–Burk plot; compound 0, 5.44, 10.87, 21.74 μM
Description: The inhibitory kinetics of seven compounds (8-9, 11, 13, 24-26) that have strong α-glucosidase inhibitory activities were studied. The Lineweaver–Burk plot was used to determine their inhibition types against α-glucosidase. […] As for compound 8, the slope of the lines became greater with the increase in the concentration, but all straight lines intersected with the x-axis almost at one point (while Vmax decreased, Km was unchanged), showing that α-glucosidase inhibition mediated by compound 8 is noncompetitive, signifying that it can bind to either the free α-glucosidase or the enzyme–substrate complex to interfere the enzyme reaction without directly blocking the binding of the substrate to the enzyme.
Concentrations of active compounds 8-9, 11, 13, 24-26 (0, 5.44, 10.87, 21.74 μM) and the substrate p-NPG ([…]) were prepared, and an experimental protocol is described in detail in the literature. The data were acquired using the Lineweaver–Burk equation of enzyme kinetics.

[3] = IC50 ± SD, PBS pH 6.8, 37 °C, three times in parallel, read-out: IC50 (μM), inhibition activities on α-Glucosidase
[4] = unit inferred, read-out: IC50 against α-glucosidase (unit inferred)

| Compound | IC50 [1, 3] [µM] | further results |
| --- | --- | --- |
| O=c1cc(-c2ccc(O)cc2)oc2c(C3OCC(O)C(O)C3O)c(O)cc(O)c12 [Compound 23, apigenin-8-C-α-L-arabinopyranoside] | > 2000 | – |
| COc1cc(O)cc(CC(=O)c2ccccc2)c1CC=C(C)C [Compound 7, cajanotone] | > 2000 | – |
| COc1cc(/C=C/c2ccccc2)cc(O)c1CC=C(C)C [Compound 9, longistylin A] | 12.9 ± 1.31 | inhibition type against α-glucosidase [2]: mixed-competitive |
| CC1(C)C=Cc2c(cc(O)c3c2O[C@H](c2ccc(O)cc2)CC3=O)O1 [Compound 26, 8-prenylnaringenin C] | 2.35 ± 0.54 | IC50 [1, 4]: 2.35 ± 0.54 µM |
| CC(C)=CCc1c(O)cc(/C=C/c2ccccc2)cc1O [Compound 3, chiricanine A] | 30.3 ± 2.33 | – |
| COc1cc(O)cc(CCc2ccccc2)c1CC=C(C)C [Compound 8] | 7 ± 0.45 | inhibition type against α-glucosidase [2]: noncompetitive |
| CC(C)=CCc1c(O)cc2oc(-c3ccccc3)cc(=O)c2c1O [Compound 12, 6-C-(3,3-dimethylallyl) chrysin] | > 2000 | – |
| COc1cc(O)c2c(c1CC=C(C)C)O[C@H](c1ccccc1)[C@@H](O)C2=O [Compound 14, 3,5-dihydroxy-7-methoxy-8-isopentenyl-dihydroflavone] | > 2000 | – |
| O=c1cc(-c2ccc(O)c(O)c2)oc2cc(O)ccc12 [Compound 25, 7, 3′, 4′-trihydroxy flavone] | 3.17 ± 0.55 | IC50 [1, 4]: 3.17 ± 0.55 µM |
| CC1(C)Oc2cc(/C=C/c3ccccc3)cc(O)c2CC1O (stereo not drawn) [Compound 4, chiricanine B] | > 2000 | – |
| COc1cc(O)c2c(=O)cc(-c3ccccc3)oc2c1CC=C(C)C [Compound 13, 5-hydroxy-7-methoxy-8-prenylflavone] | 2.3 ± 0.51 | IC50 [1, 4]: 2.3 ± 0.5 µM; inhibition type against α-glucosidase [2]: mixed-competitive |
| COc1cc(/C=C/c2ccccc2)c(C(=O)O)c2c1C[C@@H](O)C(C)(C)O2 [Compound 2, cajanstilbenoid D] | > 2000 | – |
| CC1(C)C=Cc2c(cc3occ(-c4ccc(O)cc4)c(=O)c3c2O)O1 [Compound 27, alpinum isoflavone] | > 2000 | – |
| COc1cc(O)c2c(c1)O[C@H](c1ccc(O)cc1)CC2=O [Compound 16, sakuranetin] | > 2000 | – |
| CC(C)=CCc1c(O)cc(O)c2c(=O)c(O)c(-c3ccc(O)c(O)c3)oc12 [Compound 11, 8-prenylquercretin] | 0.87 ± 0.05 | IC50 ([1]; read-out: IC50 against α-glucosidase (text, with unit)): 0.87 ± 0.05 µM; inhibition type against α-glucosidase [2]: anticompetitive |
| CC(C)=CCc1c(O)cc(O)c2c1O[C@H](c1ccc(O)cc1)[C@@H](O)C2=O [Compound 20, neophellamuretin] | 4.5 ± 0.49 | IC50 [1, 4]: 4.5 ± 0.49 µM |
| 3, 4′-O-dimethylquercetin [Compound 21] | 19.4 ± 1.02 | – |
| COc1cc(O)c2c(c1)O[C@H](c1ccccc1)CC2=O [Compound 15, pinostrobin] | > 2000 | – |
| COc1cc(O)cc(/C=C/c2ccccc2)c1 [Compound 6, pinosylvin monomethyl ether] | > 2000 | – |
| COc1cc(/C=C/c2ccccc2)c(C(=O)O)c(O)c1CC=C(C)C [Compound 5, cajaninstilbene acid] | > 2000 | – |
| COc1ccc2c(=O)c(-c3ccc(O)cc3O)coc2c1 [Compound 18, 7-methoxy-2′, 4′-dihydroxy isoflavone] | > 2000 | – |
| COc1cc(O)c2c3c1C[C@H](C(C)(C)O)[C@H](c1ccccc1)[C@H]3OC2=O [Compound 1, cajanstilbenoid C] | > 2000 | – |
| COc1ccc(-c2oc3cc(O)cc(O)c3c(=O)c2O)cc1O [Compound 19, tamarixetin] | 8.7 ± 0.08 | – |
| 7, 3′, 4′-trihydroxy isoflavone [Compound 24] | 6.5 ± 0.42 | – |
